PMC7488503 (Acta Pharmaceutica Sinica. B, 2020)

Legend:
[1] = system: patient-derived tumor (LI-03-0020) xenograft; experiment: Liver cancer patient-derived tumor xenograft; format: in vivo, Balb/c nude mice; conditions: liver cancer PDX model, 60 mg/kg oral QD
[2] = target: VEGFR2 (Homo sapiens, UniProt P35968); experiment: Z′-LYTE kinase inhibition assay
[3] = target: FGFR1 (Homo sapiens, UniProt P11362); experiment: Z′-LYTE kinase inhibition assay
[4] = target: PDGFRβ (Homo sapiens, UniProt P09619); experiment: Z′-LYTE kinase inhibition assay
Sequence of PDGFRβ (P09619 33-1106): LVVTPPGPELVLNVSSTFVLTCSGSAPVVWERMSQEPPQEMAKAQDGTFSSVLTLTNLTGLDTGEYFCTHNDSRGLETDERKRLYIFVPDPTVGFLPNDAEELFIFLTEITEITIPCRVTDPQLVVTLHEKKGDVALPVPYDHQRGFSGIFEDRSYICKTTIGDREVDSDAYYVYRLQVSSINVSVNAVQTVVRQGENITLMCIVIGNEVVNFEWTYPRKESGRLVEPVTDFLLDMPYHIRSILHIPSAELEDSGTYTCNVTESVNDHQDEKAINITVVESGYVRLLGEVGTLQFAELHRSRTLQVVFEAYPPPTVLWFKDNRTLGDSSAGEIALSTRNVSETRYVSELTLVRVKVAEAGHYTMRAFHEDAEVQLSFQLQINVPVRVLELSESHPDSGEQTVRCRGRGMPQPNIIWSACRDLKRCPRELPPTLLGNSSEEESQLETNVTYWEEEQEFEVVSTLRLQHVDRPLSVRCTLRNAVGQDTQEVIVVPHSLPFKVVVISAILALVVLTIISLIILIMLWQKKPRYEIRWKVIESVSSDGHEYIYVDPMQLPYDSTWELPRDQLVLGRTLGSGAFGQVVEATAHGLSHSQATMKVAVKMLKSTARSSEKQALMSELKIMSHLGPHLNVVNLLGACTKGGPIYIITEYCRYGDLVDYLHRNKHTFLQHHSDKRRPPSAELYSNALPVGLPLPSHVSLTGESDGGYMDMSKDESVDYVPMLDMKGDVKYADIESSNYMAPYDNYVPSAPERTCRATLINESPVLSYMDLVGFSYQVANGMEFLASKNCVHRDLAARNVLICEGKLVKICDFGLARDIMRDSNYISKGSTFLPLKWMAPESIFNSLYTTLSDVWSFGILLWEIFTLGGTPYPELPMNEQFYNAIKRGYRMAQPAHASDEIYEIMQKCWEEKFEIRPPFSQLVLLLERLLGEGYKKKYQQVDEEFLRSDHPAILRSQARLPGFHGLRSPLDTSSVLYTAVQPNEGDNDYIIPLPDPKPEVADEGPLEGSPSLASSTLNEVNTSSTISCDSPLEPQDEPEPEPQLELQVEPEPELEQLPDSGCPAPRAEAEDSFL

Sequence of FGFR1 (P11362 22-822): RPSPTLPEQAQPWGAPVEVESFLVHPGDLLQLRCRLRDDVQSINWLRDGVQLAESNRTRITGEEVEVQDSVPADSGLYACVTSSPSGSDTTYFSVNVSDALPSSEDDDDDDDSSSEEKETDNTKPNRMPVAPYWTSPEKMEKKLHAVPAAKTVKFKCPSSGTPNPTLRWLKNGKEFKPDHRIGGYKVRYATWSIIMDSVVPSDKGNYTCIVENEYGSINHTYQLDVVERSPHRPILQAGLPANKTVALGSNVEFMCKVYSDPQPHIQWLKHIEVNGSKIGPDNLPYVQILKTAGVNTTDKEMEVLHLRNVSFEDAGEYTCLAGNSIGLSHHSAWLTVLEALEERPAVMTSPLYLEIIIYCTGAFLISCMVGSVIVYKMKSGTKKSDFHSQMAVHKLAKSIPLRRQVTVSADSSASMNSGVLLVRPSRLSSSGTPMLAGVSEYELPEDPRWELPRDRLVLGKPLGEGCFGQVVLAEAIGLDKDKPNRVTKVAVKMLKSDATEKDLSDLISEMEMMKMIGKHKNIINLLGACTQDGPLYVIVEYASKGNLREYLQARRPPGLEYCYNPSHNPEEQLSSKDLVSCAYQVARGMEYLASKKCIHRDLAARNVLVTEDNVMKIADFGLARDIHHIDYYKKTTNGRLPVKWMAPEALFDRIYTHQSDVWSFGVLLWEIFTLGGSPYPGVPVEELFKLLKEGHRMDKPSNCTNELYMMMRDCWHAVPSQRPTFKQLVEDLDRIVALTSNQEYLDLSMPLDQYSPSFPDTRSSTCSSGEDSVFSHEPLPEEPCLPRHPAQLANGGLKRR
Sequence of VEGFR2 (P35968 20-1356): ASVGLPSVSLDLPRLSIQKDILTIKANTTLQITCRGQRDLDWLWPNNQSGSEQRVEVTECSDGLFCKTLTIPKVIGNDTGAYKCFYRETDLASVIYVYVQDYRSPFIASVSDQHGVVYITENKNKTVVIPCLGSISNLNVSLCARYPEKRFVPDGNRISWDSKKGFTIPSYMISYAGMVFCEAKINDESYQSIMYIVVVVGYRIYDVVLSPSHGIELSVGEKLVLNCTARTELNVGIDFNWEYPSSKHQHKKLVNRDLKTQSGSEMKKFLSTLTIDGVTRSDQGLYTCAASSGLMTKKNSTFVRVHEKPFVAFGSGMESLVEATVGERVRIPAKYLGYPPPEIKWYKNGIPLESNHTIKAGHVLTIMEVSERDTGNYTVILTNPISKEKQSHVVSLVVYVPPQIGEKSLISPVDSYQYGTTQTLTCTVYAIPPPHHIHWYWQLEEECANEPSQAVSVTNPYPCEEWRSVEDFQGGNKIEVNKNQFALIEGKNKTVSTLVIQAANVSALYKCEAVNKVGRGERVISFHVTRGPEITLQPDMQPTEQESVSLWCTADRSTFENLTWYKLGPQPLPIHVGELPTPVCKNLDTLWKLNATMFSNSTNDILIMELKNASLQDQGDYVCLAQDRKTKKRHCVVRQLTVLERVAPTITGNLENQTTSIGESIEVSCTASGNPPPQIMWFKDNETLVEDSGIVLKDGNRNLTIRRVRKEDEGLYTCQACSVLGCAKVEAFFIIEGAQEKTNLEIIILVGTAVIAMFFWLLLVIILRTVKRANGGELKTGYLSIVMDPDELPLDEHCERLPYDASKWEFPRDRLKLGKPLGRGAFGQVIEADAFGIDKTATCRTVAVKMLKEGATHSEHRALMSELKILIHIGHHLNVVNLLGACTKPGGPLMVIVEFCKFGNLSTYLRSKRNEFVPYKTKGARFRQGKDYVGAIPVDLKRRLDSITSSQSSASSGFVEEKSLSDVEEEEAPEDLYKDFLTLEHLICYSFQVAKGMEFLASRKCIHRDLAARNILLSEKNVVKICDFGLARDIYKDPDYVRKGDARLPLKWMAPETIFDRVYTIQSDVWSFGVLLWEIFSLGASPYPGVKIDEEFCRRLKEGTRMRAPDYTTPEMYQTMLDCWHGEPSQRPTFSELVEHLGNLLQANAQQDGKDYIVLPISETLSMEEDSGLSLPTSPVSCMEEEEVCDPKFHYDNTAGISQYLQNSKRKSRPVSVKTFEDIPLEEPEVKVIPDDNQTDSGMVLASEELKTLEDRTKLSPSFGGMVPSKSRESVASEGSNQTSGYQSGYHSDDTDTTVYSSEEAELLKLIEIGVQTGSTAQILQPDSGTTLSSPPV

CNC(=O)c1cc(Oc2ccc(NC(=O)Nc3ccc(Cl)c(C(F)(F)F)c3)cc2)ccn1 [Sorafenib, reference compound]
T/C ([1]; Day 21): 31%
TGI ([1]; Day 21): 80%
Tumor volume at Day 21 ([1]; mean ± SEM): 304 ± 73 mm^3

O=C1NCOc2cc3nccc(Oc4ccc(NC(=S)NC5CC5)c(Cl)c4)c3cc21 [B3]
IC50 [2]: 0.227 µM
IC50 [3]: 0.777 µM
IC50 [4]: 0.41 µM

COc1cc2nccc(Oc3ccc(NC(N)=S)c(Cl)c3)c2cc1C(N)=O [C1]
IC50 [2]: 0.0327 µM
IC50 [3]: 0.436 µM
IC50 [4]: 0.0772 µM
